# Measurements taken from patent publication US12606541B2, “PPARg modulators and methods of use” (Eisai R&D Management Co., Ltd., priority 2020, dated 2026).
# Assays:
# [1] = target: T1, His6-TEV-PPARγ-(234-505) (Homo sapiens, UniProt P37231); assay: TR-FRET Assay to Measure Co-R Peptide Recruitment to PPARγ; format: biochemical; conditions: Co-R peptide (SMRT-ID2) recruitment; top final concentration 20 μM; read-out: TR-FRET i-Ag; AC50
# T1 construct: The His6-TEV-PPARγ-(234-505) protein for assay was expressed and purified; TEV cleavage site (N); made in house
# T1 sequence (P37231 234-505): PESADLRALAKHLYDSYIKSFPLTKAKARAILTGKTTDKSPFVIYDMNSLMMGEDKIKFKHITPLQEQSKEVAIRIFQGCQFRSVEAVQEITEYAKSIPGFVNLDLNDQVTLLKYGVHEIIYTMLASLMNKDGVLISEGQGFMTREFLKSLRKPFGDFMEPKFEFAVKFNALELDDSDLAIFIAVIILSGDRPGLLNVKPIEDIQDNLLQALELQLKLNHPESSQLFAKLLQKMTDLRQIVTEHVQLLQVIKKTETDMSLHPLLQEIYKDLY
# How it was run: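 Corepressor recruitment is measured by adding terbium-labeled anti-His antibody and FITC SMRT-ID2 peptide, at 5 and 200 nM final, after a 20-minute room-temperature protein–compound incubation. After one further hour, signal is converted to percent response between DMSO and 500 nM T0070907 wells.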
# [2] = tested on: UM-UC-9 engineered cells; assay: Cell proliferation / short-term viability assay, CellTiter-Glo 144 h; format: cell-based, human; conditions: read-out: CTGlo 144 h UMUC9.5, G150
# How it was run: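 Viability read by CellTiter-Glo 2.0 luminescence at day 7 versus DMSO-vehicle wells and a T0 plate measured on day 0. Cells: UM-UC-9 engineered assay-ready stocks, 500 cells/well in high-glucose DMEM with 10% FBS, 37° C, 5% CO2.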
Compound,AC50 [1] [nM],IC50 [2] [nM]
"COc1cc(-c2cc(C(=O)N3CCC(C(=O)NC4CN(CC(C)(C)F)CC4(F)F)CC34CC4)n[nH]2)c(F)cn1 (mixture of isomers) [Example 379, (S)—N—((S)-4,4-difluoro-1-(2-fluoro-2-methylpropyl)pyrrolidin-3-yl)-4-(5-(5-fluoro-2-methoxypyridin-4-yl)-1H-pyrazole-3-carbonyl)-4-azaspiro[2.5]octane-7-carboxamide and (S)—N—((R)-4,4-difluoro-1-(2-fluoro-2-methylpropyl)pyrrolidin-3-yl)-4-(5-(5-fluoro-2-methoxypyridin-4-yl)-1H-pyrazole-3-carbonyl)-4-azaspiro[2.5]octane-7-carboxamide]",12.2,11
"COc1cc(-c2cc(C(=O)N3CCC(C(=O)NC4CCOc5ccc(C)nc54)CC34CC4)n[nH]2)c(F)cn1 (mixture of isomers) [Example 380, (S)-4-(5-(5-fluoro-2-methoxypyridin-4-yl)-1H-pyrazole-3-carbonyl)-N—((R)-6-methyl-3,4-dihydro-2H-pyrano[3,2-b]pyridin-4-yl)-4-azaspiro[2.5]octane-7-carboxamide and (S)-4-(5-(5-fluoro-2-methoxypyridin-4-yl)-1H-pyrazole-3-carbonyl)-N—((S)-6-methyl-3,4-dihydro-2H-pyrano[3,2-b]pyridin-4-yl)-4-azaspiro[2.5]octane-7-carboxamide]",30.6,43.7
"COc1cc(-c2cc(C(=O)N3CCC(C(=O)NCC4CCc5[nH]nc(C)c5C4)CC34CC4)n[nH]2)c(F)cn1 (mixture of isomers) [Example 382, (S)-4-(5-(5-fluoro-2-methoxypyridin-4-yl)-1H-pyrazole-3-carbonyl)-N—(((S)-3-methyl-4,5,6,7-tetrahydro-1H-indazol-5-yl)methyl)-4-azaspiro[2.5]octane-7-carboxamide and (S)-4-(5-(5-fluoro-2-methoxypyridin-4-yl)-1H-pyrazole-3-carbonyl)-N—(((R)-3-methyl-4,5,6,7-tetrahydro-1H-indazol-5-yl)methyl)-4-azaspiro[2.5]octane-7-carboxamide]",4,10
"COc1cc(-c2cc(C(=O)N3CCC(C(=O)NC4CCOc5cc(F)cnc54)CC34CC4)n[nH]2)c(F)cn1 (mixture of isomers) [Example 383, (S)-4-(5-(5-fluoro-2-methoxypyridin-4-yl)-1H-pyrazole-3-carbonyl)-N—((R)-7-fluoro-3,4-dihydro-2H-pyrano[3,2-b]pyridin-4-yl)-4-azaspiro[2.5]octane-7-carboxamide and (S)-4-(5-(5-fluoro-2-methoxypyridin-4-yl)-1H-pyrazole-3-carbonyl)-N—((S)-7-fluoro-3,4-dihydro-2H-pyrano[3,2-b]pyridin-4-yl)-4-azaspiro[2.5]octane-7-carboxamide]",33.1,43.1
"COc1cc(-c2cc(C(=O)N3CCC(C(=O)NC4CCN(c5cccnc5)C4)CC34CC4)n[nH]2)c(F)cn1 (mixture of isomers) [Example 390, (S)-4-(5-(5-fluoro-2-methoxypyridin-4-yl)-1H-pyrazole-3-carbonyl)-N—((R)-1-(pyridin-3-yl)pyrrolidin-3-yl)-4-azaspiro[2.5]octane-7-carboxamide and (S)-4-(5-(5-fluoro-2-methoxypyridin-4-yl)-1H-pyrazole-3-carbonyl)-N—((S)-1-(pyridin-3-yl)pyrrolidin-3-yl)-4-azaspiro[2.5]octane-7-carboxamide]",4.2,7.1
"COc1cc(-c2cc(C(=O)N3CCC(C(=O)NC4CCN(C5COC5)C4)CC34CC4)n[nH]2)c(F)cn1 (mixture of isomers) [Example 396, (S)-4-(5-(5-fluoro-2-methoxypyridin-4-yl)-1H-pyrazole-3-carbonyl)-N—((R)-1-(oxetan-3-yl)pyrrolidin-3-yl)-4-azaspiro[2.5]octane-7-carboxamide and (S)-4-(5-(5-fluoro-2-methoxypyridin-4-yl)-1H-pyrazole-3-carbonyl)-N—((S)-1-(oxetan-3-yl)pyrrolidin-3-yl)-4-azaspiro[2.5]octane-7-carboxamide]",97.7,293
"COc1cc(-c2cc(C(=O)N3CCC(C(=O)NC(C)C45CCC(O)(CC4)CC5)CC34CC4)n[nH]2)c(F)cn1 (mixture of isomers) [Example 411, (S)-4-(5-(5-fluoro-2-methoxypyridin-4-yl)-1H-pyrazole-3-carbonyl)-N—((R)-1-(4-hydroxybicyclo[2.2.2]octan-1-yl)ethyl)-4-azaspiro[2.5]octane-7-carboxamide and (S)-4-(5-(5-fluoro-2-methoxypyridin-4-yl)-1H-pyrazole-3-carbonyl)-N—((S)-1-(4-hydroxybicyclo[2.2.2]octan-1-yl)ethyl)-4-azaspiro[2.5]octane-7-carboxamide]",37.2,60.1
"COc1cc(-c2cc(C(=O)N3CCC(C(=O)NC(C)c4cn5c(n4)COCC5)CC34CC4)n[nH]2)c(F)cn1 (mixture of isomers) [Example 415, (S)—N—((S)-1-(5,6-dihydro-8-imidazo[2,1-c][1,4]oxazin-2-yl)ethyl)-4-(5-(5-fluoro-2-methoxypyridin-4-yl)-1H-pyrazole-3-carbonyl)-4-azaspiro[2.5]octane-7-carboxamide and (S)—N—((R)-1-(5,6-dihydro-8H-imidazo[2,1-c][1,4]oxazin-2-yl)ethyl)-4-(5-(5-fluoro-2-methoxypyridin-4-yl)-1H-pyrazole-3-carbonyl)-4-azaspiro[2.5]octane-7-carboxamide]",163,524
"COc1cc(-c2cc(C(=O)N3CCC(C(=O)NC4CCC(C)(C)N(C)C4)CC34CC4)n[nH]2)c(F)cn1 (mixture of isomers) [Example 424, (S)-4-(5-(5-fluoro-2-methoxypyridin-4-yl)-1H-pyrazole-3-carbonyl)-N—((R)-1,6,6-trimethylpiperidin-3-yl)-4-azaspiro[2.5]octane-7-carboxamide and (S)-4-(5-(5-fluoro-2-methoxypyridin-4-yl)-1H-pyrazole-3-carbonyl)-N—((S)-1,6,6-trimethylpiperidin-3-yl)-4-azaspiro[2.5]octane-7-carboxamide]",942,1950
"COc1cc(-c2cc(C(=O)N3CCC(C(=O)NC4CCN(CCF)C(C)(C)C4)CC34CC4)n[nH]2)c(F)cn1 (mixture of isomers) [Example 425, (S)-4-(5-(5-fluoro-2-methoxypyridin-4-yl)-1H-pyrazole-3-carbonyl)-N—((S)-1-(2-fluoroethyl)-2,2-dimethylpiperidin-4-yl)-4-azaspiro[2.5]octane-7-carboxamide and (S)-4-(5-(5-fluoro-2-methoxypyridin-4-yl)-1H-pyrazole-3-carbonyl)-N—((R)-1-(2-fluoroethyl)-2,2-dimethylpiperidin-4-yl)-4-azaspiro[2.5]octane-7-carboxamide]",901,> 10000
"COc1cc(-c2cc(C(=O)N3CCC(C(=O)NC4CN(C5CCOC5)C4)CC34CC4)n[nH]2)c(F)cn1 (mixture of isomers) [Example 433, (S)-4-(5-(5-fluoro-2-methoxypyridin-4-yl)-1H-pyrazole-3-carbonyl)-N-(1-((S)-tetrahydrofuran-3-yl)azetidin-3-yl)-4-azaspiro[2.5]octane-7-carboxamide and (S)-4-(5-(5-fluoro-2-methoxypyridin-4-yl)-1H-pyrazole-3-carbonyl)-N-(1-((R)-tetrahydrofuran-3-yl)azetidin-3-yl)-4-azaspiro[2.5]octane-7-carboxamide]",89.6,695
"COc1cc(-c2cc(C(=O)N3CCC(C(=O)Nc4cnn5ccc(C(C)O)nc45)CC34CC4)n[nH]2)c(F)cn1 (mixture of isomers) [Example 445, (S)-4-(5-(5-fluoro-2-methoxypyridin-4-yl)-1H-pyrazole-3-carbonyl)-N-(5-((R)-1-hydroxyethyl)pyrazolo[1,5-a]pyrimidin-3-yl)-4-azaspiro[2.5]octane-7-carboxamide and (S)-4-(5-(5-fluoro-2-methoxypyridin-4-yl)-1H-pyrazole-3-carbonyl)-N-(5-((S)-1-hydroxyethyl)pyrazolo[1,5-a]pyrimidin-3-yl)-4-azaspiro[2.5]octane-7-carboxamide]",1.2,22.4
"COc1cc(-c2cc(C(=O)N3CCC(C(=O)NC4CCN(c5ccnc6[nH]ncc56)C4)CC34CC4)n[nH]2)c(F)cn1 (mixture of isomers) [Example 450, (S)—N—((S)-1-(1H-pyrazolo[3,4-b]pyridin-4-yl)pyrrolidin-3-yl)-4-(5-(5-fluoro-2-methoxypyridin-4-yl)-1H-pyrazole-3-carbonyl)-4-azaspiro[2.5]octane-7-carboxamide and (S)—N—((R)-1-(1H-pyrazolo[3,4-b]pyridin-4-yl)pyrrolidin-3-yl)-4-(5-(5-fluoro-2-methoxypyridin-4-yl)-1H-pyrazole-3-carbonyl)-4-azaspiro[2.5]octane-7-carboxamide]",1.5,114
